In patent US5100785A, “Polycyclic ether antibiotic” (Pfizer Inc., priority 1984, dated 1992):

How the values were obtained:
[1] = test system: Pasteurella multocida; test: in vitro antibacterial activity (MIC), Pasteurella multocida; assay type: cell-based; settings: strain 59A006; 24 hours
[2] = test system: Fusobacterium necrophorum; test: in vitro antibacterial activity (MIC), Fusobacterium necrophorum; assay type: cell-based; settings: strain 84C004; 24 hours
[3] = test system: Escherischia coli; test: in vitro antibacterial activity (MIC), Escherischia coli; assay type: cell-based; settings: gram-negative; 24 hours
Procedure: (§1) In Table I, below, the results of in vitro tests are summarized. For this test each organism is innoculated in a series of test tubes containing nutrient medium and varying concentrations of Antibiotic UK-58,852 to determine the minimal concentration of the compound in mcg./ml. which inhibits the growth of the organism over a period of 24 hours (MIC).

[4] = test system: Serratia marcescens; test: in vitro antibacterial activity (MIC), Serratia marcescens; assay type: cell-based; settings: gram-negative; 24 hours
Procedure: as §1

[5] = test system: Staphylococcus aureus; test: in vitro antibacterial activity (MIC), Staphylococcus aureus; assay type: cell-based; settings: 24 hours
Procedure: as §1

[6] = test system: Enterobacteriaceae aerogenes; test: in vitro antibacterial activity (MIC), Enterobacteriaceae aerogenes; assay type: cell-based; settings: gram-negative; 24 hours
Procedure: as §1

[7] = test system: Streptococcus faecalis; test: in vitro antibacterial activity (MIC), Streptococcus faecalis; assay type: cell-based; settings: strain 02A006; 24 hours
[8] = test system: Actinomyces pyogenes; test: in vitro antibacterial activity (MIC), Actinomyces pyogenes; assay type: cell-based; settings: strain 14D011; 24 hours
[9] = test system: Pseudomonas aeruginosa; test: in vitro antibacterial activity (MIC), Pseudomonas aeruginosa; assay type: cell-based; settings: gram-negative; 24 hours
Procedure: as §1

[10] = test system: Klebsiella pneumoniae; test: in vitro antibacterial activity (MIC), Klebsiella pneumoniae; assay type: cell-based; settings: gram-negative; 24 hours
Procedure: as §1

[11] = test system: Actinobacillus pleuropneumoniae; test: in vitro antibacterial activity (MIC), Actinobacillus pleuropneumoniae; assay type: cell-based; settings: 24 hours
[12] = test system: Streptococcus pyogenes; test: in vitro antibacterial activity (MIC), Streptococcus pyogenes; assay type: cell-based; settings: strain 020303; 24 hours
[13] = test system: Treponema hyodysenteriae; test: in vitro antibacterial activity (MIC), Treponema hyodysenteriae; assay type: cell-based; settings: strain 94A007; 24 hours
[14] = test system: Bacteroides fragilis; test: in vitro antibacterial activity (MIC), Bacteroides fragilis; assay type: cell-based; settings: strain 78C024; 24 hours
[15] = test system: Clostridium perfringens; assay type: cell-based; settings: strain 10A009; 24 hours
[16] = test system: rumen fluid; test: in vitro rumen technique, propionic acid production; settings: 39° C., about 16 hours; for increase in propionic acid production: 10 mcg/ml., separate experiment with CP-70,228; for increase in the production of propionic acid over control: 10 micrograms per milliliter, experiment with UK-58,852
[17] = test system: E. brunetti; test: in vivo anticoccidial activity in chickens, E. brunetti; settings: diet of chickens, 25 to 150 ppm
[18] = test system: E. necatrix; test: in vivo anticoccidial activity in chickens, E. necatrix; settings: diet of chickens, 25 to 150 ppm
[19] = test system: E. maxima; test: in vivo anticoccidial activity in chickens, E. maxima; settings: diet of chickens, 25 to 150 ppm
[20] = test system: Eimeria acervulina; test: in vivo anticoccidial activity in chickens, Eimeria acervulina; settings: for AVERAGE DEGREE OF INFECTION / WEIGHT GAIN (PERCENT): chickens, after five days
[21] = test system: Eimeria tenella; test: in vivo anticoccidial activity in chickens, Eimeria tenella; settings: for AVERAGE DEGREE OF INFECTION / WEIGHT GAIN (PERCENT): chickens, after six days
[22] = diet of chickens, 25 to 150 ppm

Compound: COC1CCC(OC2CC(C3OC(C)(OC)C(C)CC3C)OC2C2(C)CCC(C3(C)CCC4(CC(O)C(C)C(C(C)C5OC(O)(CC(=O)[O-])C(C)C(OC6CCC(OC)C(C)O6)C5OC)O4)O3)O2)OC1C.[Na+] (centres unmarked) [CP-70,228 Sodium Salt]
- MIC [1]: > 100 µg/mL
- MIC [2]: > 100 µg/mL
- MIC [3]: > 50 µg/mL
- MIC [4]: > 50 µg/mL
- MIC ([5]; strain 01A005): 3.12 µg/mL
- MIC ([5]; strain 01A052): 3.12 µg/mL
- MIC ([5]; strain 01A110): 3.12 µg/mL
- MIC ([5]; strain 01A400): 6.25 µg/mL
- MIC [6]: > 50 µg/mL
- MIC [7]: 50 µg/mL
- MIC [8]: 0.34 µg/mL
- MIC [9]: > 50 µg/mL
- MIC [10]: > 50 µg/mL
- MIC ([11]; strain 54B004): > 100 µg/mL
- MIC [12]: 0.10 µg/mL
- MIC [13]: 1.58 µg/mL
- MIC [14]: 12.5 µg/mL

Compound: COC1CCC(OC2CC(C3OC(C)(O)C(C)CC3C)OC2C2(C)CCC(C3(C)CCC4(CC(O)C(C)C(C(C)C5OC(O)(CC(=O)[O-])C(C)C(OC6CCC(OC)C(C)O6)C5OC)O4)O3)O2)OC1C.[Na+] (centres unmarked) [UK-58,852 (sodium salt)]
- MIC [1]: > 200 µg/mL
- MIC [2]: > 25 µg/mL
- MIC [3]: > 50 µg/mL
- MIC [4]: > 50 µg/mL
- MIC ([5]; strain 01A005): 3.12 µg/mL
- MIC ([5]; strain 01A052): 3.12 µg/mL
- MIC ([5]; strain 01A110): 3.12 µg/mL
- MIC ([5]; strain 01A400): 6.25 µg/mL
- MIC [6]: > 50 µg/mL
- MIC [7]: > 50 µg/mL
- MIC [8]: 0.08 µg/mL
- MIC [9]: > 50 µg/mL
- MIC [10]: > 50 µg/mL
- MIC ([11]; strain 44B004): > 25 µg/mL
- MIC [12]: 0.05 µg/mL
- MIC [13]: 0.39 µg/mL
- MIC [15]: 0.79 µg/mL
- MIC [14]: 0.10 µg/mL

Compound: CC[C@@H](C(=O)[C@@H](C)[C@@H](O)[C@H](C)[C@@H]1O[C@@H]([C@@H](CC)C(=O)O)CC[C@@H]1C)[C@H]1O[C@]2(C=C[C@@H](O)[C@]3(CC[C@@](C)([C@H]4CC[C@](O)(CC)[C@H](C)O4)O3)O2)[C@H](C)C[C@@H]1C [salinomycin, reference compound]
- increase in propionic acid production [16]: about 40%
- increase in the production of propionic acid over control [16]: ~88%

Compound: COC1CCC(OC2CC(C3OC(C)(O)C(C)CC3C)OC2C2(C)CCC(C3(C)CCC4(CC(O)C(C)C(C(C)C5OC(O)(CC(=O)O)C(C)C(OC6CCC(OC)C(C)O6)C5OC)O4)O3)O2)OC1C (centres unmarked) [UK-58,852]
- increase in the production of propionic acid over control [16]: about 93%
- controlling infections due to E. brunetti [17]: effective
- controlling infections due to E. necatrix [18]: effective
- controlling infections due to E. maxima [19]: effective
- AVERAGE DEGREE OF INFECTION ([20]; 25 ppm in feed): 0.0
- WEIGHT GAIN (PERCENT) ([20]; 25 ppm in feed): 98%
- AVERAGE DEGREE OF INFECTION ([20]; 50 ppm in feed): 0.0
- WEIGHT GAIN (PERCENT) ([20]; 50 ppm in feed): 62%
- AVERAGE DEGREE OF INFECTION ([20]; 75 ppm in feed): 0.0
- WEIGHT GAIN (PERCENT) ([20]; 75 ppm in feed): 0%
- AVERAGE DEGREE OF INFECTION ([20]; 100 ppm in feed): 0.0
- WEIGHT GAIN (PERCENT) ([20]; 100 ppm in feed): 23%
- AVERAGE DEGREE OF INFECTION ([20]; 125 ppm in feed): 0.0
- WEIGHT GAIN (PERCENT) ([20]; 125 ppm in feed): 0%
- AVERAGE DEGREE OF INFECTION ([20]; 150 ppm in feed): 0.0
- WEIGHT GAIN (PERCENT) ([20]; 150 ppm in feed): 0%
- controlling infections due to E. acervulina [20, 22]: effective
- AVERAGE DEGREE OF INFECTION ([21]; 25 ppm in feed): 0.0
- WEIGHT GAIN (PERCENT) ([21]; 25 ppm in feed): 93%
- AVERAGE DEGREE OF INFECTION ([21]; 50 ppm in feed): 0.0
- WEIGHT GAIN (PERCENT) ([21]; 50 ppm in feed): 45%
- AVERAGE DEGREE OF INFECTION ([21]; 75 ppm in feed): 0.0
- WEIGHT GAIN (PERCENT) ([21]; 75 ppm in feed): 28%
- AVERAGE DEGREE OF INFECTION ([21]; 100 ppm in feed): 0.0
- WEIGHT GAIN (PERCENT) ([21]; 100 ppm in feed): 8%
- AVERAGE DEGREE OF INFECTION ([21]; 125 ppm in feed): 0.0
- WEIGHT GAIN (PERCENT) ([21]; 125 ppm in feed): 4%
- AVERAGE DEGREE OF INFECTION ([21]; 150 ppm in feed): 0.0
- WEIGHT GAIN (PERCENT) ([21]; 150 ppm in feed): 0%
- controlling infections due to Eimeria tenella [21, 22]: effective

Compound: COC1CCC(OC2CC(C3OC(C)(OC)C(C)CC3C)OC2C2(C)CCC(C3(C)CCC4(CC(O)C(C)C(C(C)C5OC(O)(CC(=O)O)C(C)C(OC6CCC(OC)C(C)O6)C5OC)O4)O3)O2)OC1C (centres unmarked) [CP-70,228]
- increase in propionic acid production [16]: about 30%
- AVERAGE DEGREE OF INFECTION ([20]; 25 ppm in feed): 1.2
- WEIGHT GAIN (PERCENT) ([20]; 25 ppm in feed): 40%
- AVERAGE DEGREE OF INFECTION ([20]; 50 ppm in feed): 0.0
- WEIGHT GAIN (PERCENT) ([20]; 50 ppm in feed): 70%
- AVERAGE DEGREE OF INFECTION ([20]; 75 ppm in feed): 0.0
- WEIGHT GAIN (PERCENT) ([20]; 75 ppm in feed): 100%
- AVERAGE DEGREE OF INFECTION ([20]; 100 ppm in feed): 0.0
- WEIGHT GAIN (PERCENT) ([20]; 100 ppm in feed): 100%
- AVERAGE DEGREE OF INFECTION ([21]; 25 ppm in feed): 2.7
- WEIGHT GAIN (PERCENT) ([21]; 25 ppm in feed): 80%
- AVERAGE DEGREE OF INFECTION ([21]; 50 ppm in feed): 1.3
- WEIGHT GAIN (PERCENT) ([21]; 50 ppm in feed): 103%
- AVERAGE DEGREE OF INFECTION ([21]; 75 ppm in feed): 0.3
- WEIGHT GAIN (PERCENT) ([21]; 75 ppm in feed): 63%
- AVERAGE DEGREE OF INFECTION ([21]; 100 ppm in feed): 0.0
- WEIGHT GAIN (PERCENT) ([21]; 100 ppm in feed): 95%

Compound: COC1CCC(OC2CC(C3OC(C)(OC)C(C)CC3C)OC2C2(C)CCC(C3(C)CCC4(CC(OC)C(C)C(C(C)C5OC(O)(CC(=O)[O-])C(C)C(OC6CCC(OC)C(C)O6)C5OC)O4)O3)O2)OC1C.[Na+] (centres unmarked) [CP-70,828 Sodium Salt]
- MIC [3]: > 50 µg/mL
- MIC [4]: > 50 µg/mL
- MIC ([5]; strain 01A005): 25 µg/mL
- MIC ([5]; strain 01A052): 25 µg/mL
- MIC ([5]; strain 01A110): 25 µg/mL
- MIC ([5]; strain 01A400): 25 µg/mL
- MIC [6]: > 50 µg/mL
- MIC [7]: > 50 µg/mL
- MIC [9]: > 50 µg/mL
- MIC [10]: > 50 µg/mL
- MIC [12]: 3.12 µg/mL
